Measurements taken from patent US12103924B2, “Mitogen-activated protein kinase kinase (MEK) degradation compounds and methods of use” (Icahn School of Medicine at Mount Sinai, priority 2020, dated 2024).

How the values were obtained:
[1] = biological target: T1, MEK2 (Homo sapiens, UniProt P36507); experiment: HotSpot kinase inhibition assay, MEK2; assay type: biochemical; conditions: MEK2 150 nM, ERK K52R substrate, 33P-ATP, normalized with DMSO
T1 construct: purchased Thermo Fisher Scientific PV3615

[2] = tested on: MEK1/2; experiment: Western blot of MEK1/2 protein levels in HT-29 cells; assay type: cell-based
Method: Compound concentrations are 0.3 μM, 1 μM and 3 μM.
(§1) The indicated protein levels were determined by Western blots.
(§2) The sample was centrifuged at 12,000 g for 10 min at 4° C. to get supernatant as cell lysate. Protein concentrations were quantified using Pierce rapid gold BCA protein assay kit.

[3] = biological target: T2, MEK1 (Homo sapiens, UniProt Q02750); experiment: HotSpot kinase inhibition assay, MEK1; assay type: biochemical; conditions: MEK1 100 nM, ERK K52R substrate, 33P-ATP, normalized with DMSO
T2 construct: purchased Thermo Fisher Scientific PV3303

[4] = tested on: MEK1/2; experiment: Rescue experiments (pretreatment) in SK-MEL-28 cells, western blot; assay type: cell-based; conditions: 2 h pretreatment with PD0325901 (1 μM), MG-132 (3 μM), MLN4924 (1 μM) or VH 032 (10 μM), then 10 h with 0.3 μM CPD-031
[5] = tested on: MEK1 and MEK2 proteins; experiment: Global proteome analysis of HT-29 cells; assay type: cell-based, human; conditions: 10 h, 0.1 μM, versus 0.1% DMSO
Method: […] […] P values were calculated from the data of two technical replicates. (A) DMSO compared to CPD-031 treated samples; (B) CPD-034 compared to CPD-031 treated samples; (C) DMSO compared to CPD-034 treated samples.
Proteins outside the significance lines were labeled with pink or purple color (FDR=0.05, S0=1). P values were calculated from the data of two technical replicates.
Protein Extraction and Digestion. Cells with indicated treatments were harvested and lysed in lysis buffer (6 M guanidine hydrochloride, 100 mM Tris-HCl pH 8.0). Sonication (5 s on, 5 s off, 2×30 s) was performed to shear genome DNA. Lysate were centrifugated for 30 min at 3,500 g at 4° C. and the supernatant were transferred to a clean tube, diluted 50% with Milli-Q H2O, then precipitated by addition of cold acetone (four times the original volume), and placed at −20° C. overnight. Precipitated proteins were brought down at 20,000 g at 4° C. for 10 min, and washed with cold acetone after discarding the supernatant. The pellet was air-dried at RT for 5 min and solubilized with 50 mM Tris-HCl (PH 8.0), 8 M urea. Protein concentration was determined (BCA assay) and protein was reduced with 5 mM DTT (dithiothreitol), alkylated with 15 mM IAA (iodoacetamide) in the dark, then diluted with buffer 25 mM Tris (pH 8.0) and 1 mM CaCl2 (three times the original volume). The final urea concentration is 2 M. Trypsin was added into protein solution with 1:100 ratio (trypsin:protein), and digested 12-16 h or overnight at RT.
Mass Spectrometry Analysis. Peptides were cleaned up by C18 stage tips and the concentration was determined (Peptide assay, 23275, Thermo Fisher Scientific). The clean peptides were dissolved in 0.1% formic acid and analyzed on a Q-Exactive HF-X coupled with an Easy nanoLC 1200 (Thermo Fisher Scientific, San Jose, CA). 0.5 μg of peptides were loaded onto an Acclain PepMap RSLC C18 Column (250 mm×75 μm ID, C18, 2 μm, Thermo Fisher Scientific). […] A linear gradient of 5 to 30% buffer B over 110 min was executed at a 300 nl/min flow rate followed a ramp to 100% B in 5 min, and 15-min wash with 100% B, where buffer A was aqueous 0.1% formic acid, and buffer B was 80% acetonitrile and 0.1% formic acid.
LC-MS experiments were performed in a data-dependent mode with full MS (externally calibrated to a mass accuracy of <5 ppm and a resolution of 60,000 at m/z 200) followed by high energy collision-activated dissociation-MS/MS of the top 20 most intense ions with a resolution of 15,000 at m/z 200. High energy collision-activated dissociation-MS/MS was used to dissociate peptides at a normalized collision energy of 27 eV in the presence of nitrogen bath gas atoms. Dynamic exclusion was 30.0 seconds. Each sample was subjected to two technical LC-MS replicates.
MS Data Analysis. Mass spectra processing and peptide identification were performed on the Andromeda search engine in MaxQuant software (Version 1.6.0.16) against the human UniProt database (UP000005640). All searches were conducted with a defined modification of cysteine carbamidomethylation, with methionine oxidation and protein amino-terminal acetylation as dynamic modifications. Peptides were confidently identified using a target-decoy approach with a peptide false discovery rate (FDR) of 1% and a protein FDR of 1%. A minimum peptide length of 7 amino acids was required, maximally two missed cleavages were allowed, initial mass deviation for precursor ion was up to 7 ppm, and the maximum allowed mass deviation for fragment ions was 0.5 Da. Data processing and statistical analysis were performed on Perseus (Version 1.6.0.7). Protein quantitation was performed on duplicate runs, and a two-sample t-test statistics was used to report statistically significant expression fold-changes.

[6] = tested on: pMEK and pERK; experiment: Western blot of MEK and ERK phosphorylation in SK-MEL-28 cells
[7] = tested on: MEK1/2; experiment: Western blot of MEK1/2 protein levels in SK-MEL-28 cells
Method: as §1, §2

[8] = tested on: MEK1/2; experiment: Rescue experiments (pretreatment) in HT-29 cells, western blot; assay type: cell-based; conditions: 2 h pretreatment with PD0325901 (1 μM), MG-132 (3 μM), MLN4924 (1 μM) or VH 032 (10 μM), then 10 h with 0.3 μM CPD-031
Method: The cells were incubated for another 8 h.
as §2

[9] = tested on: pMEK and pERK; experiment: Western blot of MEK and ERK phosphorylation in HT-29 cells; assay type: cell-based
[10] = tested on: SK-MEL-28 cells; experiment: MTT cell viability assay, SK-MEL-28; assay type: cell-based; conditions: MTT 3 d, clonogenic assay 14 d at 10, 30 and 100 nM
Method: Clonogenic assay was performed in HT-29 (C) and SK-MEL-28 (D) cells for 14 d treatment with DMSO or indicated compounds with 10, 30 and 100 nM, in duplicate, respectively. Cells were then stained by crystal violet.
Cells (2000 cells per well) were seeded into 96-well microplates. After 20 h, cells were treated with 0.1% DMSO or indicated serial dilutions of compounds in duplicate or triplicate for 3 days. Cell viability was tested using MTT (M6494, Thermo Fisher Scientific) or WST-8 reagent (CK04, Dojindo). Briefly, 12 mM MTT was prepared in PBS or WST-8 reagent was warmed up to room temperature. 20 μL MTT or CCK-8 was then added to each well and the plates were kept in incubator at 37° C. for 3 h in the dark. For the WST-8 assay, signal was obtained after the incubation. For the MTT assay, cell medium was replaced with 200 μL of DMSO after the incubation, and then cell plates were kept at 37° C. for another 30 min. Absorbance signals for MTT and WST-8 were read at 540 nm and 450 nm respectively, with 690 nm as reference performed with Infinite F PLEX plate reader (TECAN, Morrisville, NC, USA). GI50 values were analyzed using GraphPad Prism 8 from the data of at least three independent experiments.
HT-29 or SK-MEL-28 cells (300 cells per well) were seeded in 12-well plates. After 20 h, cells were treated with DMSO or indicated concentrations of compounds in duplicate for two weeks. […]

[11] = tested on: HT-29 cells; experiment: MTT cell viability assay, HT-29; assay type: cell-based
Method: MTT assay was conducted for HT-29 cells after 3 d treatment with indicated compounds with serial dilutions.
MTT assay was conducted for HT-29 (A) and SK-MEL-28 (B) cells after 3 d treatment with DMSO or indicated compounds with serial dilutions. Clonogenic assay was performed in HT-29 (C) and SK-MEL-28 (D) cells for 14 d treatment with DMSO or indicated compounds with 10, 30 and 100 nM, in duplicate, respectively. Cells were then stained by crystal violet.
HT-29 or SK-MEL-28 cells (300 cells per well) were seeded in 12-well plates. After 20 h, cells were treated with DMSO or indicated concentrations of compounds in duplicate for two weeks. Medium containing indicated compounds was changed every 3 days. Cells were then fixed and stained with the solution containing 6% (v/v) glutaraldehyde (G5882, Sigma-Aldrich) and 0.5% (w/v) crystal violet for 1 h. To remove the background color, the plates with stained cells were immersed in running water until clear colonies were observed. The plates were dried at RT. The staining images were obtained with Epson Perfection V600 Photo.

[12] = HT-29 cells, 0.1 μM or 0.3 μM, harvested at indicated time points
[13] = HT-29 cells, 0.1, 0.3, or 1 μM, 24 h
[14] = HT-29 cells, serial dilution, 24 h, western blot
[15] = SK-MEL-28 cells, 0.1 μM or 0.3 μM, harvested at indicated time points
[16] = SK-MEL-28 cells, 0.1, 0.3, or 1 μM, 24 h
[17] = SK-MEL-28 cells, serial dilution, 24 h, western blot

T2 sequence (Q02750 whole entry): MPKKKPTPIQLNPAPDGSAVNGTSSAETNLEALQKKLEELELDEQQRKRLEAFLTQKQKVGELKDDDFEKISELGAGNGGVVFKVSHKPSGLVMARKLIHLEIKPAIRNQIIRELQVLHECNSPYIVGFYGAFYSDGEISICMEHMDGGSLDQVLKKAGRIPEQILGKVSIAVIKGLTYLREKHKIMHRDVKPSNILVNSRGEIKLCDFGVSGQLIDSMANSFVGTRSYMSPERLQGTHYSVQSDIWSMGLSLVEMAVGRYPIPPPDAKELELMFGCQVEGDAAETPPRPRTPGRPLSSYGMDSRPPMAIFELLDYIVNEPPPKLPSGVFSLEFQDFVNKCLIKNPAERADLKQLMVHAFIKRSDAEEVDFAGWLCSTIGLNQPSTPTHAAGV
T1 sequence (P36507 whole entry): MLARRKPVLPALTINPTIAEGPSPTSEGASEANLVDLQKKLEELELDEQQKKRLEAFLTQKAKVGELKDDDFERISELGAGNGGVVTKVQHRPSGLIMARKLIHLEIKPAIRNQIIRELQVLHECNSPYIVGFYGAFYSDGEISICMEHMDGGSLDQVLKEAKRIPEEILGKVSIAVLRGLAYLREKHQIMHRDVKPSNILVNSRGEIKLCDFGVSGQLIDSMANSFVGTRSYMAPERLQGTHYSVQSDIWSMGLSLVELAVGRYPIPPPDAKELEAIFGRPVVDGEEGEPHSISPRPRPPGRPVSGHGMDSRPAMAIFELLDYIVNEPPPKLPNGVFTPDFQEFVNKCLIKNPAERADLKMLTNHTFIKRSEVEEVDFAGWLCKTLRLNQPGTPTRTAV

Compound: Cc1ncsc1-c1ccc([C@H](C)NC(=O)[C@@H]2C[C@@H](O)CN2C(=O)[C@@H](NC(=O)CCCCCCCCCCNCCCONC(=O)c2ccc(F)c(F)c2Nc2ccc(I)cc2F)C(C)(C)C)cc1 [CPD-031, (2S,4R)-1-((S)-20-(tert-butyl)-1-(3,4-difluoro-2-((2-fluoro-4-iodophenyl)amino)phenyl)-1,18-dioxo-3-oxa-2,7,19-triazahenicosan-21-oyl)-4-hydroxy-N—((S)-1-(4-(4-methylthiazol-5-yl)phenyl)ethyl)pyrrolidine-2-carboxamide]
- MEK2 kinase activity [1]: inhibited
- MEK1 and MEK2 protein levels, time-dependent [2, 12]: reduced
- MEK1 and MEK2 protein levels [2, 13]: reduced
- MEK1 and MEK2 protein levels, concentration-dependent [2, 14]: reduced
- MEK1 kinase activity [3]: inhibited
- potency at degradation of MEK1 and MEK2 and inhibition of MEK phosphorylation after pretreatment [4]: significantly impaired
- protein levels in the global proteomic study [5]: selectively degraded
- phosphorylation of MEK and ERK / pERK signaling, time-dependent [6, 15]: inhibited
- inhibition of MEK and ERK phosphorylation compared with CPD-034 [6, 16]: more potent
- phosphorylation of MEK and ERK proteins, concentration-dependent [6, 17]: inhibited
- MEK1 and MEK2 protein levels, time-dependent [7, 15]: reduced
- MEK1 and MEK2 protein levels [7, 16]: reduced
- MEK1 and MEK2 protein levels, concentration-dependent [7, 17]: reduced
- potency at degradation of MEK1 and MEK2 and inhibition of MEK phosphorylation after pretreatment [8]: significantly impaired
- phosphorylation of MEK and ERK / pERK signaling, time-dependent [9, 12]: inhibited
- inhibition of MEK and ERK phosphorylation compared with CPD-034 [9, 13]: more potent
- phosphorylation of MEK and ERK proteins, concentration-dependent [9, 14]: inhibited
- inhibition of the growth of cells compared with CPD-034 [10]: more potent
- GI50 ([11]; Homo sapiens, 72 h, MTT assay, 3 d treatment, serial dilutions): 0.13 ± 0.04 µM
- inhibition of the growth of cells compared with CPD-034 ([11]; MTT 3 d, clonogenic assay 14 d at 10, 30 and 100 nM): more potent
